Test system: swine growth hormone secretagogue receptor (GHSR) Type I, clone 7-3, expressed transiently in COS-7 cells
Assay: 35S-labeled Compound A binding assay on crude membranes of transfected COS-7 cells

SMILES | specific binding displaced (displacement of ^35S-Compound A binding by 50 nM unlabeled Compound A, 60 min) | Kd (saturation binding of ^35S-Compound A, clone 7-3 expressed transiently in COS-7 cells, 20°C, 1 hr)
CC(C)(N)C(=O)N[C@H](COCc1ccccc1)C(=O)N1CCC2(CC1)CN(S(C)(=O)=O)c1ccccc12 [Compound A] | > 90% | 
CC(C)(N)C(=O)N[C@H](COCc1ccccc1)C(=O)N1CCC2(CC1)CN(S(C)(=O)=O)c1ccccc12 [^35S-Compound A] |  | ~0.2 nM

— patent EP0876402B1, “GROWTH HORMONE SECRETAGOGUE RECEPTOR FAMILY” (MERCK & CO., INC., priority 1995, dated 1997)
